Reference: patent US7361645B2, “Androgenic 7-substituted 11-halogen steroids” (Bayer Schering Pharma AG, priority 2001, dated 2008)
Values joined by “and” are separate entries in the source; they are usually repeats but may differ in a detail not shown here. Equal entries are not always repeated.

Columns and labels:
[1] = Stability in liver microsomes, mouse; type: in vitro ADME; details: 3 μM
Protocol: (§1) The metabolic stability of the compounds has been tested in liver microsomes of various species (commercially available). It is possible to make predictions as to the first-pass-metabolism in human by using human test material. A rapid degradation of the test material gives hints at low oral bio-availability of the substance tested.
(§2) The amount of the remaining compound is quantified by comparison with the amount remaining after 0 mins.
(§3) Species Specific Stability of Test Compounds in Liver at a Concentration of 3 μM

[2] = tested on: prostate, seminal vesicles and M. levator ani; experiment: Anabolic and androgenic activity in the juvenile male rat (Hershberger), overall; type: in vivo; details: compared with prior art compound B
Text: (§4) The test by Hershberger et al. (1953) is used as a screening test method for detecting androgenic properties:
(§5) Principle. The function and size of the accessory reproductive glands (seminal vesicles, prostate) and of the muscle (e.g. M. levator ani) are androgen dependent. Castration leads to the atrophy of these organs, the substitution with androgenic compounds stimulates growth and function in a dose dependent manner.
(§6) Test description. In the juvenile male castrated rat, pharmacologically active agonists of androgens stimulate the growth of the prostate, seminal vesicles (androgenic property) and Musculus levator ani (anabolic property). The treatment for seven days of juvenile castrated male rats with daily administration of compound A: 11β-Fluoro-17β-hydroxy-7α-methyl-estr-4-en-3-one,(different doses), compound B: 7α-methyl-19-nortestosterone (different doses), testosterone propionate (reference) and benzylbenzoate/ricinus oil (solvent and control), respectively, was used to determine the androgenic and anabolic potency of eF-MENT. Analyses: relative weights of prostate, seminal vesicles and M. levator ani.

[3] = Stability in liver microsomes of various species, overall; type: in vitro ADME; details: compared with compounds of the prior art
Protocol: as §1, §2

M. levator ani = experiment: Hershberger test, juvenile castrated male rat: M. levator ani weight; type: in vivo; details: ORX juvenile rats, 7 days
Text: as §4, §5, §6
(§7) Animals: ORX, juvenile rats, duration of treatment: 7 days.

prostate = experiment: Hershberger test, juvenile castrated male rat: prostate weight; type: in vivo; details: ORX juvenile rats, 7 days
Text: as §4, §5, §6, §7

seminal vesicles = experiment: Hershberger test, juvenile castrated male rat: seminal vesicles weight; type: in vivo; details: ORX juvenile rats, 7 days
Text: as §4, §5, §6, §7

[4] = Stability in liver microsomes, rat; type: in vitro ADME; details: 3 μM
Protocol: as §1, §2, §3

[5] = Stability in liver microsomes, human; type: in vitro ADME; details: 3 μM
Protocol: as §1, §2, §3

## C[C@@H]1CC2=CC(=O)CC[C@@H]2[C@@H]2[C@@H]1[C@@H]1CC[C@H](O)[C@@]1(C)C[C@@H]2F [Compound A, 11β-Fluoro-17β-hydroxy-7α-methyl-estr-4-en-3-one]
[1]
  (%) left unchanged after 30 min: 20%
  (%) left unchanged after 60 min: 11%
[2]
  activity profile (androgenic/anabolic): comparable to the prior art compound B
[3]
  metabolic stability: higher than that of compounds of the prior art
M. levator ani; dose 0.015 mg*kg^-1*day^-1
  M. levator ani Stimulation [mean]: 79.5
  M. levator ani rel. Weight: 54.9 mg/100 g and 50.8 mg/100 g
M. levator ani; dose 0.03 mg*kg^-1*day^-1
  M. levator ani Stimulation [mean]: 93.3
  M. levator ani rel. Weight: 56.5 mg/100 g
M. levator ani; dose 0.05 mg*kg^-1*day^-1
  M. levator ani Stimulation [mean]: 118.0
  M. levator ani rel. Weight: 59.4 mg/100 g
M. levator ani; dose 0.15 mg*kg^-1*day^-1
  M. levator ani Stimulation [mean]: 154.5
M. levator ani; dose 0.3 mg*kg^-1*day^-1
  M. levator ani Stimulation [mean]: 180.4
  M. levator ani rel. Weight: 69.8 mg/100 g
M. levator ani; dose 1.5 mg*kg^-1*day^-1
  M. levator ani Stimulation [mean]: 181.0
  M. levator ani rel. Weight: 69.9 mg/100 g
prostate; dose 0.015 mg*kg^-1*day^-1
  Prostate Stimulation [mean]: 30.0
  Prostate rel. Weight: 19.7 mg/100 g and 18.5 mg/100 g
prostate; dose 0.03 mg*kg^-1*day^-1
  Prostate Stimulation [mean]: 40.1
  Prostate rel. Weight: 25.2 mg/100 g
prostate; dose 0.05 mg*kg^-1*day^-1
  Prostate Stimulation [mean]: 76.6
  Prostate rel. Weight: 34.1 mg/100 g
prostate; dose 0.15 mg*kg^-1*day^-1
  Prostate Stimulation [mean]: 93.8
  Prostate rel. Weight: 41.7 mg/100 g and 44.9 mg/100 g and 47.5 mg/100 g
prostate; dose 0.3 mg*kg^-1*day^-1
  Prostate Stimulation [mean]: 125.1
  Prostate rel. Weight: 59.5 mg/100 g
prostate; dose 1.5 mg*kg^-1*day^-1
  Prostate Stimulation [mean]: 137.3
  Prostate rel. Weight: 64.6 mg/100 g
Seminal vesicles; dose 0.015 mg*kg^-1*day^-1
  Seminal vesicles Stimulation [mean]: 18.6
  Seminal vesicles rel. Gewicht: 18.6 mg/100 g and 15.5 mg/100 g
Seminal vesicles; dose 0.03 mg*kg^-1*day^-1
  Seminal vesicles Stimulation [mean]: 35.6
  Seminal vesicles rel. Gewicht: 26.8 mg/100 g
Seminal vesicles; dose 0.05 mg*kg^-1*day^-1
  Seminal vesicles Stimulation [mean]: 59.2
  Seminal vesicles rel. Gewicht: 43.6 mg/100 g
Seminal vesicles; dose 0.15 mg*kg^-1*day^-1
  Seminal vesicles Stimulation [mean]: 85.5
  Seminal vesicles rel. Gewicht: 49.3 mg/100 g and 57.9 mg/100 g and 64.4 mg/100 g
Seminal vesicles; dose 0.3 mg*kg^-1*day^-1
  Seminal vesicles Stimulation [mean]: 144.8
  Seminal vesicles rel. Gewicht: 93.4 mg/100 g
Seminal vesicles; dose 1.5 mg*kg^-1*day^-1
  Seminal vesicles Stimulation [mean]: 189.3
  Seminal vesicles rel. Gewicht: 120.0 mg/100 g
[4]
  (%) left unchanged after 30 min: 5%
  (%) left unchanged after 60 min: 7%
[5]
  (%) left unchanged after 30 min: 59%
  (%) left unchanged after 60 min: 41%

## C[C@@H]1CC2=CC(=O)CC[C@@H]2[C@H]2CC[C@]3(C)[C@@H](O)CC[C@H]3[C@@H]21 [Compound B, 7α-methyl-19-nortestosterone, reference compound]
[1]
  (%) left unchanged after 30 min: 4%
  (%) left unchanged after 60 min: 4%
M. levator ani; dose 0.005 mg*kg^-1*day^-1
  M. levator ani Stimulation [mean]: 71.3
  M. levator ani rel. Weight: 36.6 mg/100 g
M. levator ani; dose 0.015 mg*kg^-1*day^-1
  M. levator ani Stimulation [mean]: 92.6
  M. levator ani rel. Weight: 38.1 mg/100 g and 53.7 mg/100 g
M. levator ani; dose 0.05 mg*kg^-1*day^-1
  M. levator ani Stimulation [mean]: 150.7
  M. levator ani rel. Weight: 48.1 mg/100 g and 59.4 mg/100 g
M. levator ani; dose 0.15 mg*kg^-1*day^-1
  M. levator ani Stimulation [mean]: 283.4
  M. levator ani rel. Weight: 59.4 mg/100 g
prostate; dose 0.005 mg*kg^-1*day^-1
  Prostate Stimulation [mean]: 4.3
  Prostate rel. Weight: 8.9 mg/100 g
prostate; dose 0.015 mg*kg^-1*day^-1
  Prostate Stimulation [mean]: 24.0
  Prostate rel. Weight: 14.6 mg/100 g and 20.0 mg/100 g
prostate; dose 0.05 mg*kg^-1*day^-1
  Prostate Stimulation [mean]: 51.3
  Prostate rel. Weight: 24.7 mg/100 g and 31.7 mg/100 g
prostate; dose 0.15 mg*kg^-1*day^-1
  Prostate Stimulation [mean]: 90.2
  Prostate rel. Weight: 40.6 mg/100 g
Seminal vesicles; dose 0.005 mg*kg^-1*day^-1
  Seminal vesicles Stimulation [mean]: 4.6
  Seminal vesicles rel. Gewicht: 9.2 mg/100 g
Seminal vesicles; dose 0.015 mg*kg^-1*day^-1
  Seminal vesicles Stimulation [mean]: 17.0
  Seminal vesicles rel. Gewicht: 13.6 mg/100 g and 19.2 mg/100 g
Seminal vesicles; dose 0.05 mg*kg^-1*day^-1
  Seminal vesicles Stimulation [mean]: 51.8
  Seminal vesicles rel. Gewicht: 36.8 mg/100 g and 39.0 mg/100 g
Seminal vesicles; dose 0.15 mg*kg^-1*day^-1
  Seminal vesicles Stimulation [mean]: 87.8
  Seminal vesicles rel. Gewicht: 65.5 mg/100 g
[4]
  (%) left unchanged after 30 min: 4%
  (%) left unchanged after 60 min: 6%
[5]
  (%) left unchanged after 30 min: 37%
  (%) left unchanged after 60 min: 19%
